Here are results for 4 compounds from ChEMBL document CHEMBL1134894, “Fused azaindole derivatives: molecular design, synthesis and in vitro pharmacology leading to the preferential dopamine D3 receptor agonist FAUC 725” (Bioorg Med Chem Lett, 2002).

The EC50 is the concentration needed to bring the measured effect to its halfway point. High values mean a need for much substance, low ones an effect from little substance. As usually defined, the Ki is the dissociation constant of the complex between target and ligand, obtained from inhibition or displacement. In general, Kd refers to the free concentration of one partner at which half of the binding sites on the other are occupied at equilibrium, for simple one-to-one binding. The low end stands for higher affinity, the high end for lower affinity.

Test [1] concerns the target T1, D(4) dopamine receptor (Homo sapiens, UniProt P21917).
T1 sequence (P21917 whole entry): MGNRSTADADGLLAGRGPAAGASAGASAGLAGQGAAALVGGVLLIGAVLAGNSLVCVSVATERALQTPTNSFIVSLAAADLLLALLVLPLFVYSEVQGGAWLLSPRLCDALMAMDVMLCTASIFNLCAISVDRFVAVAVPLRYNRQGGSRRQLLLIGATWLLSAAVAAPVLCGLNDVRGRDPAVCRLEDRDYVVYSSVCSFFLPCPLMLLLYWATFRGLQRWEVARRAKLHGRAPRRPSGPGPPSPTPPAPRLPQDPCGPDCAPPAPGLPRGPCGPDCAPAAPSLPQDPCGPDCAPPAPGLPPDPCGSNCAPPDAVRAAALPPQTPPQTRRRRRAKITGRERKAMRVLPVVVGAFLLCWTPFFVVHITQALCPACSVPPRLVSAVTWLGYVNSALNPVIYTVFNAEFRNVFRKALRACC
Nature of the test: Effective concentration required for agonistic activity against human D4.2 receptor. In kind it is functional.

The target in test [2] is T2, D(3) dopamine receptor (Homo sapiens, UniProt P35462).
Test [3] concerns the target T3, D(2) dopamine receptor (Homo sapiens, UniProt P14416). Nature of the test: Binding affinity of compound measured using [3H]spiperone for the cloned human Dopamine receptor D2L (high/low affinity is given as 85/6400).
For test [4], the target named is T4, D(2) dopamine receptor (Bos taurus, UniProt P20288). Nature of the test: Binding affinity of compound against Dopamine receptor D2 was measured using [3H]pramipexole in Bovine striatal membranes. The test is classed as cell membranes, Striatum, Membrane.
Test [5] has as its target T3, D(2) dopamine receptor. Nature of the test: Binding affinity of compound measured using [3H]spiperone for the cloned human dopamine receptor D2 short (high/low affinity is given as 35/3700).
For test [6], the target named is T1, D(4) dopamine receptor. Nature of the test: Binding affinity of compound measured using [3H]spiperone for the cloned human dopamine receptor D4.4 (high/low affinity is given as 50/2200).
The target of test [7] is T2, D(3) dopamine receptor. Description: Effective concentration required for agonistic activity against human Dopamine receptor D3.
Test [8] deals with T5, D(2) dopamine receptor (Rattus norvegicus, UniProt P61169). Nature of the test: Effective concentration required for agonistic activity against rat Dopamine receptor D2L. In kind it is functional.
Test [9] concerns the target T5, D(2) dopamine receptor. Nature of the test: Effective concentration required for agonistic activity against rat D2 short receptor. The test is classed as functional.
Test [10] deals with D(1A) dopamine receptor (Bos taurus, UniProt Q95136). Description: Binding affinity of compound measured against Dopamine receptor D1 from bovine striatal membranes using radioligand [3H]-SCH- 23390.
The target in test [11] is T2, D(3) dopamine receptor. Nature of the test: Effective concentration required for agonistic activity against human D3 receptor. The test is classed as functional.
For test [12], the target named is T5, D(2) dopamine receptor. Description: Effective concentration required for agonistic activity against rat D2 long receptor. In kind it is functional.
For test [13], the target named is T2, D(3) dopamine receptor. The source holds these as a separate data set.
Description: Binding affinity of compound measured using [3H]spiperone for the cloned human Dopamine receptor D3 (high/low affinity is given as 16/16000)
In test [14] the target is T1, D(4) dopamine receptor. Nature of the test: Binding affinity of compound measured using [3H]spiperone for the cloned human dopamine receptor D4.4 (high/low affinity is given as 87/23000).
Test [15] concerns the target T3, D(2) dopamine receptor. Nature of the test: Binding affinity of compound measured using [3H]spiperone for the cloned human dopamine receptor D2 long (high/low affinity is given as 230/53000).
Test [16] deals with T3, D(2) dopamine receptor. Description: Binding affinity of compound measured using [3H]spiperone for the cloned human dopamine receptor D2 short (high/low affinity is given as 130/50000).
Test [17] deals with T4, D(2) dopamine receptor.
For test [18], the target named is T1, D(4) dopamine receptor. Description: Binding affinity of compound measured using [3H]spiperone for the cloned human dopamine receptor D4.4 (high/low affinity is given as 16/1300).

Molecules are shown by their SMILES. Bounds are passed on as bounds.

T4 sequence (P20288 whole entry): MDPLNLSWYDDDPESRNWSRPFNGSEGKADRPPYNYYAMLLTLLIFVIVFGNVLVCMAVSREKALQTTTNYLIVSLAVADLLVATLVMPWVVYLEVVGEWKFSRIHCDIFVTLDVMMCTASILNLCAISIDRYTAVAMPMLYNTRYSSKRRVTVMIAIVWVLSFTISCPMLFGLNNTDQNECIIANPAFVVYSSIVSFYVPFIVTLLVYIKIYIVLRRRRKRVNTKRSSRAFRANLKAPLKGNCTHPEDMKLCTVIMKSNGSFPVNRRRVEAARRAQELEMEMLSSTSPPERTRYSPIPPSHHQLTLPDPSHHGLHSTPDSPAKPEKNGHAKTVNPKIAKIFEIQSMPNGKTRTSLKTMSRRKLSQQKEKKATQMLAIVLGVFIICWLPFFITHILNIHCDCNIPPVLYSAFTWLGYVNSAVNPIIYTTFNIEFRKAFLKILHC
T5 sequence (P61169 whole entry): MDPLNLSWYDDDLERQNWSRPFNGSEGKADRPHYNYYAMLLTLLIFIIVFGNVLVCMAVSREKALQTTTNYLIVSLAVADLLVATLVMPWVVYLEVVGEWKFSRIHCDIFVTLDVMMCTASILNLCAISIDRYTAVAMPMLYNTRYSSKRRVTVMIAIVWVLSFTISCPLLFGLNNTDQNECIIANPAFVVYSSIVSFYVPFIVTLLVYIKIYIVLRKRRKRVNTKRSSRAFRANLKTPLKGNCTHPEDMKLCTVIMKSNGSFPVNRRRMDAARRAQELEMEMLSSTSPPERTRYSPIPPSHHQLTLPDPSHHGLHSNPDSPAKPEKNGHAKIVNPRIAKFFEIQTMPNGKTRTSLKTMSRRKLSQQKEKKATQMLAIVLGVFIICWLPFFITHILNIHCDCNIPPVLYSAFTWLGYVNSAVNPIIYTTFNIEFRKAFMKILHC
T2 sequence (P35462 whole entry): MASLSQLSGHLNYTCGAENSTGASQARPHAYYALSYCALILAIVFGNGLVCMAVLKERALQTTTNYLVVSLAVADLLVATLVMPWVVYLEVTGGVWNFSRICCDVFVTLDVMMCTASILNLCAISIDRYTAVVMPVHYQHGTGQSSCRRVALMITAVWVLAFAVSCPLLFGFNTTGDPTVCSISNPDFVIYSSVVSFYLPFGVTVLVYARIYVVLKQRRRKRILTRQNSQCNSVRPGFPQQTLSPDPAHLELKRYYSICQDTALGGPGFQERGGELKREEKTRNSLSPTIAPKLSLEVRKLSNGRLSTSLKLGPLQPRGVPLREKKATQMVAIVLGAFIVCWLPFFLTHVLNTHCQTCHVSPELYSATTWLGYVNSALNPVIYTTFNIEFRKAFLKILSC
T3 sequence (P14416 whole entry): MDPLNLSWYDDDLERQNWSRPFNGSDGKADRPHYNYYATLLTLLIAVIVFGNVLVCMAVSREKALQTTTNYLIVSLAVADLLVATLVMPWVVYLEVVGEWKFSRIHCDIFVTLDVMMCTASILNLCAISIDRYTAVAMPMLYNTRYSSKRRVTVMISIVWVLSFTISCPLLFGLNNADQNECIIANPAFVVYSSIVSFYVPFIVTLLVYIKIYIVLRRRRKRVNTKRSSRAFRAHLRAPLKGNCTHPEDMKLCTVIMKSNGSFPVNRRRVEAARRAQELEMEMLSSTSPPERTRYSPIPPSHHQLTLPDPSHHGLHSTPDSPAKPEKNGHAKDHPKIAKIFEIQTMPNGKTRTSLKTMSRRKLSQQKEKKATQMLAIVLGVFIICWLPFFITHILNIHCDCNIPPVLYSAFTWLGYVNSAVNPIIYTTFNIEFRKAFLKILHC
Sequence of D(1A) dopamine receptor (Q95136 whole entry): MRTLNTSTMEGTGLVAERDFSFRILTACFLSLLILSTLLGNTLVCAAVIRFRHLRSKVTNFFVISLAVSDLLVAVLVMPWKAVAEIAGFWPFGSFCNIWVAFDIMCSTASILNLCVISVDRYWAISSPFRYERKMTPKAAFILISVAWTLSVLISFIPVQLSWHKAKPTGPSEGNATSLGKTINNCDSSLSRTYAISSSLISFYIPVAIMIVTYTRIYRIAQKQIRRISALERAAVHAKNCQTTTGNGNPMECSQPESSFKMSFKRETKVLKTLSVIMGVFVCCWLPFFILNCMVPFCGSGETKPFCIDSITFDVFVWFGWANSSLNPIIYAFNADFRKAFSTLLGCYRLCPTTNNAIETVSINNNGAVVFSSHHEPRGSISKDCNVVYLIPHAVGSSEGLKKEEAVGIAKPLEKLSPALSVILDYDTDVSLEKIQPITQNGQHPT

Turning to `CCCN(CCC)[C@H]1CCc2nn3ccccc3c2C1`, the EC50 in test [1] is 430 nM; in [7], 2.8 nM; in test [8], 16 nM; in test [9], 47 nM. The Ki in [2] amounted to 0.54 nM; in test [3] it was 85 nM; in [4] it was 8.6 nM; in test [5] it was 35 nM; in [6], 50 nM; in test [10] it was 18000 nM.

As for `CCCN1CCc2nn3ccccc3c2C1`, the EC50 in test [11], in [1], in test [12] and in test [9] was over 1000 nM in each case. For the same compound, the Ki in test [13] was 16 nM; in test [4], 3100 nM; in test [14] it was 87 nM; in test [15], 230 nM; in test [16], 130 nM; in test [10], 21000 nM.

Compound `CCCN[C@H]1CCc2nc(N)sc2C1` [PRAMIPEXOLE] gave a Kd in test [17] of 1.6 nM.

As for `CCCN1CCC[C@@H](c2cccc(O)c2)C1` [PRECLAMOL], the response in test [1] was half-maximal at 60 nM (EC50). The Ki turned out to be 52 nM in test [4] and 16 nM in test [18].
